{"source": "paper PMC3924858", "about": "(Journal of medicinal chemistry, 2013)", "molecular_target": "human mGlu5 receptor (Homo sapiens, UniProt P41594)", "sequence (P41594 21-1180 isoform P41594-2 limits assumed)": "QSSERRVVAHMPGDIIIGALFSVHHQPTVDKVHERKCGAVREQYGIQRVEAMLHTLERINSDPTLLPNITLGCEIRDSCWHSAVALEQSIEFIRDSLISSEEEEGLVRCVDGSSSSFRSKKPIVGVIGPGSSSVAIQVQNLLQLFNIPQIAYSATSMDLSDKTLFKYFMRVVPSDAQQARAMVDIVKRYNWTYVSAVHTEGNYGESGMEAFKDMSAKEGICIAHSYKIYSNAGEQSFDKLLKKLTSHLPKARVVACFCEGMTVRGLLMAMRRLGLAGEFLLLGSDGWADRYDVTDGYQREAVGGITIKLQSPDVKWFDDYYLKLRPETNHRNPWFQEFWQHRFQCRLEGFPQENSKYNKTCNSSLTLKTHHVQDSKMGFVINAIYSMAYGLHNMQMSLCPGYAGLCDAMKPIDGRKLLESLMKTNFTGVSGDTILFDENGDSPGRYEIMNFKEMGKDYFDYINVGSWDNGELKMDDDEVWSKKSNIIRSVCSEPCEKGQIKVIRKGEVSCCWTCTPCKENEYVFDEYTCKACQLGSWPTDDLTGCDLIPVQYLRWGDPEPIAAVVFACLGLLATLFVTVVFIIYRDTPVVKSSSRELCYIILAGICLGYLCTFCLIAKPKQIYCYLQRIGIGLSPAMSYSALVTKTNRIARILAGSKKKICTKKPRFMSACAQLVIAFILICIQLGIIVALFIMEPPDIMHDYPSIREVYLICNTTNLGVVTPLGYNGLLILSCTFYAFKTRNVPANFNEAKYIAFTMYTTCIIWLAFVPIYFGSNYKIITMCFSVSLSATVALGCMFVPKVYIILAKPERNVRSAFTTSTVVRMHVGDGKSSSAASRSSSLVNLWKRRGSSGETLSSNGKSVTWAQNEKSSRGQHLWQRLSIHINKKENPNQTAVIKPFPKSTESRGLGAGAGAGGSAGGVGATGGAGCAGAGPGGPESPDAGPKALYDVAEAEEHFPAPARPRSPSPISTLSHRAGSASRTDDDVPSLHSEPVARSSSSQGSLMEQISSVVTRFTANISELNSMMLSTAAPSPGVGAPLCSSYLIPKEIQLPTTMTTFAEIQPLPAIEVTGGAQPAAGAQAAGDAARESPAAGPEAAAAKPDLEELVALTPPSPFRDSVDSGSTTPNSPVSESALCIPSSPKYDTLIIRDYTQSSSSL"}
{"smiles": "O=C1c2sc(COc3ccccc3)nc2CCN1c1ccc(F)cn1", "note": "[16p, 5-(5-Fluoro-pyridin-2-yl)-2-phenoxymethyl-6,7-dihydro-5H-thiazolo[5,4-c]pyridin-4-one]", "values": [{"measurement": "Glu Max", "result": "94 (89-99) %"}]}
